The results in this text go back to US8735364B2, “Antisense modulation of apolipoprotein B expression” (Genzyme Corporation, priority 2001, dated 2014).

Oligonucleotides are written 5' to 3', each unit as a sugar letter and its base; * is a phosphorothioate linkage, no mark a phosphodiester; rarer units and linkages stand in square brackets, end groups in braces. Plain capitals give the bases only. e = 2'-O-(2-methoxyethyl) (MOE); [5mC] = 5-methylcytosine; d = 2'-deoxy (DNA)

The test system of one data set is mouse apolipoprotein B mRNA. Put plainly: Inhibition of mouse apolipoprotein B mRNA levels in primary hepatocytes, quantitative real-time PCR. In kind it is cell-based. More on the design: %INHIB of mouse apolipoprotein B mRNA levels: concentration or dose not given beside the values. The note with it: 50 nM. Here is the method:
Primary mouse hepatocytes were prepared from CD-1 mice purchased from Charles River Labs (Wilmington, Mass.) and were routinely cultured in Hepatoyte Attachment Media (Gibco) supplemented with 10% Fetal Bovine Serum (Gibco/Life Technologies, Gaithersburg, Md.), 250 nM dexamethasone (Sigma), and 10 nM bovine insulin (Sigma). Cells were seeded into 96-well plates (Falcon-Primaria #3872) at a density of 10000 cells/well for use in RT-PCR analysis.
When cells reached 80% confluency, they were treated with oligonucleotide. For cells grown in 96-well plates, wells were washed once with 200 μL OPTI-MEM™-1 reduced-serum medium (Gibco BRL) and then treated with 130 μL of OPTI-MEM™-1 containing 3.75 μg/mL LIPOFECTIN™ (Gibco BRL) and the desired concentration of oligonucleotide. After 4-7 hours of treatment, the medium was replaced with fresh medium. Cells were harvested 16-24 hours after oligonucleotide treatment.
Quantitation of apolipoprotein B mRNA levels was determined by real-time quantitative PCR using the ABI PRISM™ 7700 Sequence Detection System (PE-Applied Biosystems, Foster City, Calif.) according to manufacturer's instructions. This is a closed-tube, non-gel-based, fluorescence detection system which allows high-throughput quantitation of polymerase chain reaction (PCR) products in real-time. As opposed to standard PCR, in which amplification products are quantitated after the PCR is completed, products in real-time quantitative PCR are quantitated as they accumulate. This is accomplished by including in the PCR reaction an oligonucleotide probe that anneals specifically between the forward and reverse PCR primers, and contains two fluorescent dyes. A reporter dye (e.g., JOE, FAM, or VIC, obtained from either Operon Technologies Inc., Alameda, Calif. or PE-Applied Biosystems, Foster City, Calif.) is attached to the 5′ end of the probe and a quencher dye (e.g., TAMRA, obtained from either Operon Technologies Inc., Alameda, Calif. or PE-Applied Biosystems, Foster City, Calif.) is attached to the 3′ end of the probe. When the probe and dyes are intact, reporter dye emission is quenched by the proximity of the 3′ quencher dye. During amplification, annealing of the probe to the target sequence creates a substrate that can be cleaved by the 5′-exonuclease activity of Taq polymerase. […] With each cycle, additional reporter dye molecules are cleaved from their respective probes, and the fluorescence intensity is monitored at regular intervals by laser optics built into the ABI PRISM™ 7700 Sequence Detection System. In each assay, a series of parallel reactions containing serial dilutions of mRNA from untreated control samples generates a standard curve that is used to quantitate the percent inhibition after antisense oligonucleotide treatment of test samples.
PCR reagents were obtained from PE-Applied Biosystems, Foster City, Calif. RT-PCR reactions were carried out by adding 25 μL PCR cocktail (1× TAQMAN™ buffer A, 5.5 mM MgCl2, 300 μM each of DATP, dCTP and dGTP, 600 μM of dUTP, 100 nM each of forward primer, reverse primer, and probe, 20 Units RNAse inhibitor, 1.25 Units AMPLITAQ GOLD™, and 12.5 Units MuLV reverse transcriptase) to 96 well plates containing 25 μL total RNA solution. The RT reaction was carried out by incubation for 30 minutes at 48° C. Following a 10 minute incubation at 95° C. to activate the AMPLITAQ GOLD™, 40 cycles of a two-step PCR protocol were carried out: 95° C. for 15 seconds (denaturation) followed by 60° C. for 1.5 minutes (annealing/extension).
Gene target quantities obtained by real time RT-PCR are normalized using either the expression level of GAPDH, a gene whose expression is constant, or by quantifying total RNA using RiboGreen™ (Molecular Probes, Inc. Eugene, Oreg.). GAPDH expression is quantified by real time RT-PCR, by being run simultaneously with the target, multiplexing, or separately. Total RNA is quantified using RiboGreen™ RNA quantification reagent from Molecular Probes. […]
As for “147776 (antisense eG*e[5mC]*eT*eT*eG*dA*dA*dG*dT*dT*d[5mC]*dA*dT*dT*dG*eA*eG*eA*eA*eT) [compound 147776]”, the “Percent Inhibition of mouse apolipoprotein B mRNA levels” value (“Percent Inhibition” for short) is reported as 0%.
Same read-out and setting: the result for “147764 (antisense eG*eT*e[5mC]*e[5mC]*e[5mC]*dT*dG*dA*dA*dG*dA*dT*dG*dT*d[5mC]*eA*eA*eT*eG*e[5mC]) [compound 147764]” reads 48%.

The data set is the same for the next values; noted with them: 150 nM.
For “147776 (antisense eG*e[5mC]*eT*eT*eG*dA*dA*dG*dT*dT*d[5mC]*dA*dT*dT*dG*eA*eG*eA*eA*eT) [compound 147776]”, the “Percent Inhibition” value came out at 17%.
With “147764 (antisense eG*eT*e[5mC]*e[5mC]*e[5mC]*dT*dG*dA*dA*dG*dA*dT*dG*dT*d[5mC]*eA*eA*eT*eG*e[5mC]) [compound 147764]”, the “Percent Inhibition” value turned out to be 84%.

The data set is the same for the next values; noted with them: 300 nM.
As to “147776 (antisense eG*e[5mC]*eT*eT*eG*dA*dA*dG*dT*dT*d[5mC]*dA*dT*dT*dG*eA*eG*eA*eA*eT) [compound 147776]”, the “Percent Inhibition” value worked out at 44%.
In the case of “147764 (antisense eG*eT*e[5mC]*e[5mC]*e[5mC]*dT*dG*dA*dA*dG*dA*dT*dG*dT*d[5mC]*eA*eA*eT*eG*e[5mC]) [compound 147764]”, the “Percent Inhibition” value worked out at 90%.

The data set is the same for the next values; noted with them: averages from two experiments.
In the case of “147499 (antisense e[5mC]*eT*eG*e[5mC]*eA*dG*dG*dG*d[5mC]*dG*dT*d[5mC]*dA*dG*dT*eG*eA*e[5mC]*eA*eA) [compound 147499]”, the “%INHIB of mouse apolipoprotein B mRNA levels” value (“%INHIB” for short) turned out to be 29%.
Same read-out and setting: for “147498 (antisense eT*eG*eG*eG*e[5mC]*dA*dA*d[5mC]*dG*dA*dT*dA*dT*d[5mC]*dT*eG*eA*eT*eT*eG) [compound 147498]” the value was 0%; for “147773 (antisense e[5mC]*eA*eT*e[5mC]*eA*dG*dA*d[5mC]*dG*dT*dG*dA*dT*dG*dT*eT*e[5mC]*e[5mC]*e[5mC]*eT) [compound 147773]”, 85%; for “147776 (antisense eG*e[5mC]*eT*eT*eG*dA*dA*dG*dT*dT*d[5mC]*dA*dT*dT*dG*eA*eG*eA*eA*eT) [compound 147776]”, 92%.
As for “147774 (antisense eT*eG*eG*e[5mC]*eT*dA*dG*dT*dT*dT*d[5mC]*dA*dA*dT*d[5mC]*e[5mC]*e[5mC]*e[5mC]*eT*eT) [compound 147774]”, the “%INHIB” value came out at 84%.
On the same count and under the same terms, the result for “147502 (antisense eA*eT*eG*eG*eG*dA*dG*d[5mC]*dA*dT*dG*dG*dA*dG*dG*eT*eT*eG*eG*e[5mC]) [compound 147502]” reads 16%.
Still for that read-out and setting: the result for “147495 (antisense eG*eT*eT*eA*eG*dG*dA*d[5mC]*d[5mC]*dA*dG*dG*dG*dA*dT*eT*eG*eT*eG*eA) [compound 147495]” reads 0%; that for “147503 (antisense eA*eA*eT*eG*eG*dA*dT*dG*dA*dT*dG*dA*dA*dA*d[5mC]*eA*eG*eT*eG*eG) [compound 147503]”, 26%; that for “147501 (antisense e[5mC]*eT*eT*eG*eG*dT*dT*dA*dA*dA*d[5mC]*dT*dA*dA*dT*eG*eG*eT*eG*e[5mC]) [compound 147501]”, 18%.
As for “147488 (antisense eA*eG*e[5mC]*eT*eT*dG*d[5mC]*dT*dT*dG*dT*dT*dG*dG*dG*e[5mC]*eA*e[5mC]*eG*eG) [compound 147488]”, the “%INHIB” value worked out at 72%.
Same read-out and setting: the result for “147770 (antisense eG*eT*eG*eT*eT*dG*dA*dA*dT*d[5mC]*d[5mC]*d[5mC]*dT*dT*dG*eA*eA*eA*eT*e[5mC]) [compound 147770]” reads 67%.
“147763 (antisense eT*eG*e[5mC]*eG*eA*d[5mC]*dT*dG*dT*dG*dT*d[5mC]*dT*dG*dA*eT*eT*eT*e[5mC]*e[5mC]) [compound 147763]”: the “%INHIB” value was 34%.
On the same count and under the same terms, the result for “147493 (antisense eG*e[5mC]*eT*eT*e[5mC]*dA*dT*dT*dA*dT*dA*dG*dG*dA*dG*eG*eT*eG*eG*eT) [compound 147493]” reads 41%; that for “147761 (antisense eG*eT*eT*e[5mC]*eA*dT*dG*dG*dA*dT*dT*d[5mC]*d[5mC]*dT*dT*e[5mC]*eA*eG*eG*eA) [compound 147761]”, 45%.
“147771 (antisense eG*eG*eT*eA*eA*dA*dG*dT*dT*dG*d[5mC]*d[5mC]*d[5mC]*dA*dT*eG*eG*e[5mC]*eT*eG) [compound 147771]”: the “%INHIB” value was determined as 68%.
On the same count and under the same terms, the result for “147476 (antisense eG*eA*eG*eG*eA*dG*dA*dT*dT*dG*dG*dA*dT*d[5mC]*dT*eT*eA*eA*eG*eG) [compound 147476]” reads 13%.
The same measure, in the same setting: for “147505 (antisense eG*eG*eA*eA*eG*dT*dG*dA*dG*dA*d[5mC]*dT*dT*dT*d[5mC]*eT*eA*eA*eG*e[5mC]) [compound 147505]” the value was 76%.
As for “147494 (antisense eA*e[5mC]*eA*eA*e[5mC]*dT*dG*dG*dG*dA*dT*dA*dG*dT*dG*eT*eA*eG*e[5mC]*e[5mC]) [compound 147494]”, the “%INHIB” value was found to be 84%.
Still for that read-out and setting: the result for “147506 (antisense eA*eG*eG*eA*eA*dG*dG*dA*dA*d[5mC]*dT*d[5mC]*dT*dT*dG*eA*eT*eA*eT*eT) [compound 147506]” reads 58%; that for “147765 (antisense eA*eG*eG*e[5mC]*e[5mC]*d[5mC]*dA*dG*dT*dT*d[5mC]*d[5mC]*dA*dT*dG*eA*e[5mC]*e[5mC]*e[5mC]*eT) [compound 147765]”, 59%.
In the case of “147772 (antisense eG*eT*eT*eA*eT*dA*dA*dA*dG*dT*d[5mC]*d[5mC]*dA*dG*d[5mC]*eA*eT*eT*eG*eG) [compound 147772]”, the “%INHIB” value was determined as 78%.
Consider “147507 (antisense eA*eT*eT*eG*eG*d[5mC]*dT*dT*d[5mC]*dA*dT*dT*dG*dG*d[5mC]*eA*eA*e[5mC]*eA*e[5mC]) [compound 147507]”, for which the “%INHIB” value came out at 81%.
“147762 (antisense eA*eT*eG*e[5mC]*eT*d[5mC]*d[5mC]*dA*dT*dT*d[5mC]*dT*d[5mC]*dA*d[5mC]*eA*eT*eG*e[5mC]*eT) [compound 147762]”: the “%INHIB” value was found to be 46%.
Consider “147778 (antisense eT*e[5mC]*eA*eG*eA*dT*dA*dT*dA*d[5mC]*dA*dT*dT*dG*dG*e[5mC]*eT*eT*e[5mC]*eA) [compound 147778]”, for which the “%INHIB” value came to 14%.
Regarding “147496 (antisense eA*e[5mC]*e[5mC]*eA*eT*dG*dG*dA*dA*dA*dA*d[5mC]*dT*dG*dG*e[5mC]*eA*eA*e[5mC]*eT) [compound 147496]”, the “%INHIB” value came out at 19%.
Consider “147489 (antisense e[5mC]*e[5mC]*eT*eA*eT*dA*d[5mC]*dT*dG*dG*d[5mC]*dT*dT*d[5mC]*dT*eA*eT*eG*eT*eT) [compound 147489]”, for which the “%INHIB” value was found to be 5%.
Consider “147768 (antisense e[5mC]*e[5mC]*e[5mC]*eA*eT*dA*dT*dG*dG*dA*dG*dA*dA*dA*dT*e[5mC]*e[5mC]*eT*eT*e[5mC]) [compound 147768]”, for which the “%INHIB” value is listed as 24%.
In the case of “147764 (antisense eG*eT*e[5mC]*e[5mC]*e[5mC]*dT*dG*dA*dA*dG*dA*dT*dG*dT*d[5mC]*eA*eA*eT*eG*e[5mC]) [compound 147764]”, the “%INHIB” value turned out to be 97%.
With “147775 (antisense e[5mC]*eT*eG*eT*e[5mC]*dA*dT*dG*dA*d[5mC]*dT*dG*d[5mC]*d[5mC]*d[5mC]*eT*eT*eT*eA*e[5mC]) [compound 147775]”, the “%INHIB” value came out at 52%.
Still for that read-out and setting: for “147484 (antisense eT*eT*e[5mC]*eA*eT*d[5mC]*d[5mC]*dG*dA*dG*dA*dA*dG*dT*dT*eG*eG*eG*eA*e[5mC]) [compound 147484]” the value was 49%; for “147480 (antisense eT*e[5mC]*eT*e[5mC]*eA*d[5mC]*d[5mC]*d[5mC]*dT*d[5mC]*dA*dT*dG*d[5mC]*dT*e[5mC]*e[5mC]*eA*eT*eT) [compound 147480]”, 54%; for “147759 (antisense eA*eG*eG*eT*eG*dA*dG*dG*dA*dA*dG*dT*dT*dG*dG*eA*eA*eT*eT*e[5mC]) [compound 147759]”, 19%.
